The results in this text go back to patent US12139471B2, “NLRP3 inflammasome inhibitors” (Novartis AG, priority 2019, dated 2024).

Each structure is given as a SMILES string. Structures can show the parent of a compound that is named as a salt.

One experiment deals with T1, NLRP3 inflammasome (Homo sapiens, UniProt Q96P20).
T1 construct: host or cells: THP-1 cells, PMA-differentiated
T1 sequence (Q96P20 whole entry): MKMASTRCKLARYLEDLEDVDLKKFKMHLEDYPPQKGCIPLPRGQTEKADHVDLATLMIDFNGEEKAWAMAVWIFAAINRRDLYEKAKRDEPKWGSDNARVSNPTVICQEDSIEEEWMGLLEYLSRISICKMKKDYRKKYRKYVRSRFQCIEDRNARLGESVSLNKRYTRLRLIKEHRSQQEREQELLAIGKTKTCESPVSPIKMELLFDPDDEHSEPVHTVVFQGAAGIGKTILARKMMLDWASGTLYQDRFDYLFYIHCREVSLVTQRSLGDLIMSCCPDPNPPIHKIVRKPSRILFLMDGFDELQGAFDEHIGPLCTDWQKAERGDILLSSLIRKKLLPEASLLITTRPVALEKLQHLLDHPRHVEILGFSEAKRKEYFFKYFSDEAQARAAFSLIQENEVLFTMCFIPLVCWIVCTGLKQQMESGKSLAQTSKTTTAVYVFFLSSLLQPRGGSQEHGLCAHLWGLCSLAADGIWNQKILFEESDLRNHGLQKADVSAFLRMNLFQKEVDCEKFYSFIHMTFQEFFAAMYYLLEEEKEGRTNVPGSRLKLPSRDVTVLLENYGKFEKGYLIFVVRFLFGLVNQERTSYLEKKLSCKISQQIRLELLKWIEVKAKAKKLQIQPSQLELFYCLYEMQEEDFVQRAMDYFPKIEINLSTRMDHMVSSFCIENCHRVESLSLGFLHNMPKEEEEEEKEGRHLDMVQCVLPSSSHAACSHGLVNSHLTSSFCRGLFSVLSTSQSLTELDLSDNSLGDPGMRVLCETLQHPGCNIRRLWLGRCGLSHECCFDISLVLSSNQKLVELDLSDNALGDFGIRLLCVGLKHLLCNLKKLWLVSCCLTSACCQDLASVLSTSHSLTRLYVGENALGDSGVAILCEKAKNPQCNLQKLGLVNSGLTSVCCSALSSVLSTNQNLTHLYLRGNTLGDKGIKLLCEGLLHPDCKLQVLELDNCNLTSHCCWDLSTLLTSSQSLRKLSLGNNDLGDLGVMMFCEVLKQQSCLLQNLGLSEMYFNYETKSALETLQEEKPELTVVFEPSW
Description: IL-1β secretion assay (nigericin-activated, PMA-differentiated THP-1 cells, HTRF). The class given is cell-based. Conditions: IL-1β IC50, PMA-differentiated THP-1 cells; compound 1 hour, then 15 μM nigericin, 3 hours; IL-1β by HTRF. The procedure: 10 μL supernatant was removed, and IL-1β levels were monitored using an HTRF assay (CisBio, #62IL1PEC) according to manufacturers' instructions. Viability and pyroptosis was monitored with the addition of PrestoBlue cell viability reagent (Life Technologies, #A13261) directly to the cell culture plate.
IC50 values were calculated from the plot of percentage of inhibition versus the inhibitor concentration by a logistics fit according to: y=A2+(A1−A2)/(1+(x/IC50)^p) where y is the %-inhibition at the inhibitor concentration, x. A1 is the lowest inhibition value, i.e. 0%, and A2 the maximum inhibition value, i.e. 100%. The exponent, p, is the Hill coefficient. The curve fitting was conducted with an internally developed software suite.
NLRP3-dependent IL-1β secretion was stimulated in PMA-differentiated THP-1 cells by the addition of nigericin, and cytokines were measured in the […] after 3 hours. As discussed above, activation of the NLRP3 inflammasome requires both an NF-kB-dependent priming step and the addition of a NLRP3 activator.
Background: Time-resolved FRET reads energy transfer from a long-lived donor to a nearby acceptor.
As a reminder, the IC50 is the concentration at which inhibition is half-maximal. `Cc1cc(C(F)(F)F)cc(O)c1-c1ccc(NC2CCC3CCC2N3CCO)nn1` (single isomer, unassigned) [Ex 86b] had an IC50 of 1.8 nM. The same measure, in the same setting: then `Cc1cc(C(F)(F)F)cc(O)c1-c1ccc(NC2CCC3CCC2N3C)nn1` (single isomer, unassigned) [Ex 85b], with 1.3 nM.

Still in this experiment, the particulars now being: PMA-differentiated THP-1 cells; compound 1 hour, then 15 μM nigericin, 3 hours; IL-1β by HTRF; read-out: IL-1β IC50.
For `Cc1cc(C(F)(F)F)cc(O)c1-c1ccc(NC[C@@H]2CCCCN2)nn1` [Ex 21, (S)-3-Methyl-2-(6-((piperidin-2-ylmethyl)amino)pyridazin-3-yl)-5-(trifluoromethyl)phenol], the IC50 came out at 48.4 nM. Regarding `Cc1cc(C(F)(F)F)cc(O)c1-c1ccc(NCC(C)(C)O)nn1` [Ex 15, 2-(6-((2-Hydroxy-2-methylpropyl)amino)pyridazin-3-yl)-3-methyl-5-(trifluoromethyl)phenol], the IC50 is 85.9 nM. As for `Cc1cc(C(F)(F)F)cc(O)c1-c1ccc(OCC(C)(C)O)nn1` [Ex 19, 2-(6-(2-Hydroxy-2-methylpropoxy)pyridazin-3-yl)-3-methyl-5-(trifluoromethyl)phenol], the IC50 worked out at 93.6 nM. Regarding `Cc1cc(C(F)(F)F)cc(O)c1-c1ccc(NC2(C)CCCN(C)C2)nn1` (stereo not drawn) [Ex 52, 2-(6-((1,3-Dimethylpiperidin-3-yl)amino)pyridazin-3-yl)-3-methyl-5-(trifluoromethyl)phenol TFA-salt], the IC50 was found to be 186 nM.

Turning to `Cc1cc(C(F)(F)F)cc(O)c1-c1ccc(N[C@@H]2CCCN3CCC[C@H]23)nn1` (single isomer, unassigned) [Ex 83a], the IC50 was determined as 0.8 nM. The same measure, in the same setting: then `Cc1cc(-c2c(C)cc(C(F)(F)F)cc2O)nnc1NC1CCC(=O)N(C)C1` (stereo not drawn) [Ex 99, 5-((6-(2-Hydroxy-6-methyl-4-(trifluoromethyl)phenyl)-4-methylpyridazin-3-yl)amino)-1-methylpiperidin-2-one], with 75 nM; and `Cc1cc(C(F)(F)F)cc(O)c1-c1ccc(NCC(O)(C(F)(F)F)C(F)(F)F)nn1` [Ex 10, 3-Methyl-2-(6((3,3,3-trifluoro-2-hydroxy-2-(trifluoromethyl)propyl)amino)pyridazin-3-yl)-5-(trifluoromethyl)phenol], with 349 nM. Same read-out and setting: then `OCCNc1ccc(-c2c(O)cc(C(F)(F)F)cc2Cl)nn1` [Ex 37, 3-Chloro-2-(6-((2-hydroxyethyl)amino)pyridazin-3-yl)-5-(trifluoromethyl)phenol], with 381 nM. For the molecule `Cc1cc(C(F)(F)F)cc(O)c1-c1ccc(N[C@H]2CC[C@H](O)[C@@H]2O)nn1` (single isomer, unassigned) [Ex 89a], the half-inhibitory concentration (IC50) turned out to be 59.7 nM. For the molecule `Cc1ncccc1CNc1ccc(-c2c(O)cc(C(F)(F)F)cc2Cl)nn1` [Ex 34, 3-Chloro-2-(6-(((2-methylpyridin-3-yl)methyl)amino)pyridazin-3-yl)-5-(trifluoromethyl)phenol], the IC50 turned out to be 496 nM.

Consider `Cc1cc(-c2c(C)cc(C(F)(F)F)cc2O)nnc1N[C@@H]1CCCN(C)C1=O` [Ex 102, (R)-3-((6-(2-Hydroxy-6-methyl-4-(trifluoromethyl)phenyl)-4-methylpyridazin-3-yl)amino)-1-methylpiperidin-2-one], for which the half-inhibitory concentration (IC50) amounted to 49 nM. `Cc1cc(C(F)(F)F)cc(O)c1-c1ccc(NCC2(O)CCCC2)nn1` [Ex 98, 2-(6-(((1-Hydroxycyclopentyl)methyl)amino)pyridazin-3-yl)-3-methyl-5-(trifluoromethyl)phenol]: the IC50 amounted to 115 nM.

For the molecule `C[C@]1(O)C[C@@H](Nc2cc(C(F)(F)F)c(-c3ccc(Cl)cc3O)nn2)C1` [Ex 69, 5-Chloro-2-(6-(((cis)-3-hydroxy-3-methylcyclobutyl)amino)-4-(trifluoromethyl)pyridazin-3-yl)phenol], the IC50 was found to be 431 nM. On the same count and under the same terms, then `Cc1cc(C(F)(F)F)cc(O)c1-c1ccc(NC[C@H](O)C(C)C)nn1` (single isomer, unassigned) [Ex 90b], with 115 nM. On the same count and under the same terms, then `Cc1cc(N[C@H]2C[C@@](C)(O)C2)nnc1-c1ccc(Cl)cc1O` [Ex 68, 5-Chloro-2-(6-(((cis)-3-hydroxy-3-methylcyclobutyl)amino)-4-methylpyridazin-3-yl)phenol], with 89.3 nM. With `Cc1cc(NCC(C)(C)O)nnc1-c1c(C)cc(C(F)(F)F)cc1O` [Ex 73, 2-(6-((2-Hydroxy-2-methylpropyl)amino)-4-methylpyridazin-3-yl)-3-methyl-5-(trifluoromethyl)phenol], the 50% inhibitory concentration (IC50) was 154 nM. The same measure, in the same setting: then `Cc1cc(C(F)(F)F)cc(O)c1-c1ccc(NC[C@H]2CCCN2)nn1` [Ex 14, (R)-3-Methyl-2-(6-((pyrrolidin-2-ylmethyl)amino)pyridazin-3-yl)-5-(trifluoromethyl)phenol], with 85.7 nM; and `Cc1cc(C(F)(F)F)cc(O)c1-c1cc(C(F)(F)F)c(NCCO)nn1` [Ex 26, 2-(6-((2-Hydroxyethyl)amino)-5-(trifluoromethyl)pyridazin-3-yl)-3-methyl-5-(trifluoromethyl)phenol], with 165 nM; and `Cc1cc(C(F)(F)F)cc(O)c1-c1ccc(N[C@@H]2CCCN(C)C2=O)nn1` [Ex 59, (R)-3-((6-(2-Hydroxy-6-methyl-4-(trifluoromethyl)phenyl)pyridazin-3-yl)amino)-1-methylpiperidin-2-one], with 35.9 nM.

`Oc1cc(C(F)(F)F)cc(Cl)c1-c1ccc(N[C@H]2C[C@H](O)C2)nn1` [Ex 32, 3-Chloro-2-(6-((trans-3-hydroxycyclobutyl)amino)pyridazin-3-yl)-5-(trifluoromethyl)phenol]: the IC50 came to 218 nM. Consider `Cc1cc(C(F)(F)F)cc(O)c1-c1ccc(NC[C@@H]2C[C@@H](F)CN2)nn1` [Ex 76, 2-(6-((((2S,4R)-4-Fluoropyrrolidin-2-yl)methyl)amino)pyridazin-3-yl)-3-methyl-5-(trifluoromethyl)phenol], for which the IC50 stood at 89.7 nM.

Consider `Cc1cc(C(F)(F)F)cc(O)c1-c1ccc(N[C@@H]2CC[C@@H](O)[C@H]2O)nn1` (single isomer, unassigned) [Ex 89b], for which the half-inhibitory concentration (IC50) amounted to 182 nM. The same measure, in the same setting: then `Cc1cc(-c2c(C)cc(C(F)(F)F)cc2O)nnc1N[C@H]1C[C@@](C)(O)C1` [Ex 54, 2-(6-(((cis)-3-Hydroxy-3-methylcyclobutyl)amino)-5-methylpyridazin-3-yl)-3-methyl-5-(trifluoromethyl)phenol], with 11.8 nM; and `Cc1cc(C(F)(F)F)cc(O)c1-c1ccc(N[C@@H]2CCC[C@H](O)C2)nn1` [Ex 3, 2-(6-(((1R,3S)-3-Hydroxycyclohexyl)amino)pyridazin-3-yl)-3-methyl-5-(trifluoromethyl)phenol], with 25.5 nM.

As to `Cc1cc(C(F)(F)F)cc(O)c1-c1ccc(N[C@H]2C[C@@](C)(O)C2)nn1` [Ex 2, 2-(6-(((cis)-3-Hydroxy-3-methylcyclobutyl)amino)pyridazin-3-yl)-3-methyl-5-(trifluoromethyl)phenol], the IC50 was determined as 10.2 nM.

Turning to `CCN1CCC[C@H]1CNc1ccc(-c2c(C)cc(C(F)(F)F)cc2O)nn1` [Ex 8, (S)-2-(6-(((1-Ethylpyrrolidin-2-yl)methyl)amino)pyridazin-3-yl)-3-methyl-5-(trifluoromethyl)phenol], the IC50 came to 24.1 nM. Still for that read-out and setting: then `Cc1cc(C(F)(F)F)cc(O)c1-c1ccc(NC[C@@H](F)C(C)(C)O)nn1` [Ex 60, (R)-2-(6-((2-Fluoro-3-hydroxy-3-methylbutyl)amino)pyridazin-3-yl)-3-methyl-5-(trifluoromethyl)phenol], with 139 nM. Turning to `Cc1cc(C(F)(F)F)cc(O)c1-c1ccc(NC[C@H]2CC(F)(F)CN2)nn1` [Ex 23, (R)-2-(6-(((4,4-Difluoropyrrolidin-2-yl)methyl)amino)pyridazin-3-yl)-3-methyl-5-(trifluoromethyl)phenol], the IC50 was 93.4 nM. `Cc1cc(C(F)(F)F)cc(O)c1-c1ccc(N[C@H]2CCC[C@H](O)C2)nn1` [Ex 57, 2-(6-(((1S,3S)-3-Hydroxycyclohexyl)amino)pyridazin-3-yl)-3-methyl-5-(trifluoromethyl)phenol]: the 50% inhibitory concentration (IC50) stood at 224 nM. Regarding `Cc1cc(C(F)(F)F)cc(O)c1-c1ccc(N[C@@H]2CCC(=O)NC2)nn1` [Ex 61, (R)-5-((6-(2-Hydroxy-6-methyl-4-(trifluoromethyl)phenyl)pyridazin-3-yl)amino)piperidin-2-one], the IC50 was determined as 65.8 nM. Take `Cc1cc(C(F)(F)F)cc(O)c1-c1ccc(NCc2ccccn2)nn1` [Ex 28, 3-Methyl-2-(6-((pyridin-2-ylmethyl)amino)pyridazin-3-yl)-5-(trifluoromethyl)phenol]: the IC50 was 288 nM. On the same count and under the same terms, then `Cc1cc(C(F)(F)F)cc(O)c1-c1ccc(NC(C)(C)CO)nn1` [Ex 79, 2-(6-((1-Hydroxy-2-methylpropan-2-yl)amino)pyridazin-3-yl)-3-methyl-5-(trifluoromethyl)phenol], with 370 nM; and `Cc1cc(C(F)(F)F)cc(O)c1-c1ccc(NC[C@@H]2CC(F)(F)CN2)nn1` [Ex 22, (S)-2-(6-(((4,4-Difluoropyrrolidin-2-yl)methyl)amino)pyridazin-3-yl)-3-methyl-5-(trifluoromethyl)phenol], with 80.7 nM. On the same count and under the same terms, then `Cc1cc(N[C@H]2C[C@@](C)(O)C2)nnc1-c1ccc(C(F)(F)F)cc1O` [Ex 55, 2-(6-(((cis)-3-Hydroxy-3-methylcyclobutyl)amino)-4-methylpyridazin-3-yl)-5-(trifluoromethyl)phenol], with 45.8 nM.
